Test results taken from patent US10717746B2, “Chemical compounds” (ASTRAZENECA AB, priority 2015, dated 2020).

Key:
CDK9/CycT1 [1] = target: T1, CDK9/CycT1 (Homo sapiens (Human), UniProt P50750); test: CDK9 kinase assay, ATP concentration at Km (mobility shift, Caliper LC3000); type: biochemical; conditions: 6 μM ATP, 3 nM CDK9/CycT1; read-out: CDK9 ATP conc. at Km (IC50)
Experimental: (§1) Activity of CDK9 was determined in-vitro using a mobility shift assay on a Caliper LC3000 reader (Caliper/PerkinElmer), which measures fluorescence of a phosphorylated and unphosphorylated fluorescent peptide substrate and calculates a ratiometric value to determine percent turnover. Phosphorylation of the peptide in the presence and absence of the compound of interest was determined. Enzyme/substrate/adenosine triphosphate (ATP) mix (3 nM CDK9/CycT1, 6 μM ATP, 1.5 μM CDK9 peptide substrate (FITC-X-GSRTPMY-NH2 (X: epsilon aminocaproic acid)), 50 mM HEPES (pH7.2), 1 mM dithiothreitol, 0.01% tween 20, 50 μg/mL bovine serum albumin, (final assay concentration)) (5 μl) was preincubated with 2 μl of compound for 15 minutes at 25° C. Reactions were initiated with 5 μl of 24 mM MgCl2 (10 mM final assay concentration) in buffer (50 mM HEPES (pH7.2), 1 mM dithiothreitol, 0.01% tween 20, 50 μg/mL bovine serum albumin, (final assay concentration) and incubated at 25° C. for 90 minutes and reactions were stopped by addition of 5 μl of Stop mix consisting of 65 mM HEPES (pH7.2), 35.5 mM EDTA, 0.227% Coatin Reagent 3 (Caliper/PerkinElmer), and 0.003% Tween. Phosphorylated and unphosphorylated substrate was detected by a Caliper LC3000 reader (Caliper/PerkinElmer) in the presence of separation buffer consisting of 100 mM HEPES (pH7.2), 15.8 mM EDTA, 0.1% Coatin Reagent 3 (Caliper/PerkinElmer), 0.015% Brij-35, 5% DMSO, and 5.6 mM MgCl2. CDK9 enzyme was acquired from Carna Biosciences (Catalogue number 04-110), the CDK9 peptide substrate was acquired from Intonation (Boston, Mass.; Custom-made).

CDK9/CycT1 [2] = target: T1, CDK9/CycT1; test: CDK9 kinase assay, high ATP concentration (5 mM ATP); type: biochemical; conditions: 1.5 nM CDK9, read-out: CDK9 High ATP conc. (IC50)
Experimental: as §1
High ATP assays were run the same way with the following modifications: the final assay concentration of CDK9 was 1.5 nM and the final assay concentration of ATP was 5 mM.

[3] = test system: phosphorylation of RNA Polymerase II (RNAPII) at the Ser2 site in MCF7 cells; test: MCF7 pSer2 RNAPII MOA assay (immunofluorescence); type: cell-based; conditions: Homo sapiens, MCF7, 6 h, 6-hr treatment, read-out: p-Ser 2 RNAPII (IC50)
Experimental: MCF7 pSer2 RNAPII MOA Assay
This is an immunofluorescence assay to determine the effect of CDK9 inhibitors on phosphorylation of RNA Polymerase II (RNAPII) at the Ser2 site in the breast cancer cell line, MCF7. On day one, 2500 MCF7 cells/well were seeded in 30 μl of growth media (RPMI+10% FBS+1% L-Glu+P/S) in 384-well black-wall clear-bottom plates, incubate plates overnight at 37° C. incubator. On the second day, the cells were treated with CDK9 inhibitors (7 point dose response ranging from 3 μM to 0.004 μM) using an ECHO liquid handler (Labcyte). After 6-hr treatment at 37° C. incubator, the cells were fixed with 30 µl/well 7.4% paraformaldehyde for 15 min at room temperature; the cells were washed twice with PBS, then permeabilized with 0.3% Triton X/PBS for 5 min at room temperature. After washing cells with PBS, the cells were incubated with 1:2000 diluted Anti-Ser2 Phospho-RNA pol II antibody (Covance MMS-129R) in 3% FBS/0.1% PBST overnight at 4° C. On the next day, the cells were washed twice with 0.1% PBST, then incubated with 1:1000 diluted Alexa Fluor 488 Goat-anti-mouse antibody (Life Technologies A-11001) and 1:4000 diluted DAPI at room temperature in dark. After one hour incubation, the cells were washed twice with 0.1% PBST, and once with PBS. The plates where sealed and read on an Acumen eX3 microplate cytometer (TTP Labtech) to assess phosphorylation level in each well.

MV411 cells = test: MV411 caspase activity assay (Caspase-Glo 3/7); type: cell-based; conditions: Homo sapiens, MV4-11, 6 h, 6-hr treatment, caspase 3/7 induction
Experimental: MV411 Caspase Activity Assay
This is a cell assay to measure the induction of caspase activity in the acute myeloid leukemia cell line, MV411 after 6-hr treatment with CDK9 inhibitors. On the first day, 3000 MV411 cells/well were seeded in 50 μl of growth media (IMDM+10% FBS+2% L-Glu+P/S) in 384-well white plates, incubate plates in 37° C. incubator overnight. […] After 6 hour incubation in 37° C. incubator, 25 μl of Caspase-Glo 3/7 reagent (Promega) per well was added into each well, and plates were incubated at room temperature for 30 min in dark. The plates were read on an Infinite M200 microplate reader (Tecan) with a 100 ms integration time.

T1 sequence (P50750 whole entry): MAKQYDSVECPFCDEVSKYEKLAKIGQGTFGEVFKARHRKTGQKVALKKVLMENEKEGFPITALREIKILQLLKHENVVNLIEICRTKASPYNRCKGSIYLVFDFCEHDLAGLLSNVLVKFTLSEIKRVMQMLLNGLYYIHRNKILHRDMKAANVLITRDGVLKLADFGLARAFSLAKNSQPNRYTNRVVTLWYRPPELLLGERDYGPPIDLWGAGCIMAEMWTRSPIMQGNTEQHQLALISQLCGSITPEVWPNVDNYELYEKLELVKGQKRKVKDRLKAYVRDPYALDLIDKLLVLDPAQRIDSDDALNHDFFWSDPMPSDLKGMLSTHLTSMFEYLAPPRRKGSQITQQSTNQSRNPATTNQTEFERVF
T1 sequence (O60563 whole entry partner): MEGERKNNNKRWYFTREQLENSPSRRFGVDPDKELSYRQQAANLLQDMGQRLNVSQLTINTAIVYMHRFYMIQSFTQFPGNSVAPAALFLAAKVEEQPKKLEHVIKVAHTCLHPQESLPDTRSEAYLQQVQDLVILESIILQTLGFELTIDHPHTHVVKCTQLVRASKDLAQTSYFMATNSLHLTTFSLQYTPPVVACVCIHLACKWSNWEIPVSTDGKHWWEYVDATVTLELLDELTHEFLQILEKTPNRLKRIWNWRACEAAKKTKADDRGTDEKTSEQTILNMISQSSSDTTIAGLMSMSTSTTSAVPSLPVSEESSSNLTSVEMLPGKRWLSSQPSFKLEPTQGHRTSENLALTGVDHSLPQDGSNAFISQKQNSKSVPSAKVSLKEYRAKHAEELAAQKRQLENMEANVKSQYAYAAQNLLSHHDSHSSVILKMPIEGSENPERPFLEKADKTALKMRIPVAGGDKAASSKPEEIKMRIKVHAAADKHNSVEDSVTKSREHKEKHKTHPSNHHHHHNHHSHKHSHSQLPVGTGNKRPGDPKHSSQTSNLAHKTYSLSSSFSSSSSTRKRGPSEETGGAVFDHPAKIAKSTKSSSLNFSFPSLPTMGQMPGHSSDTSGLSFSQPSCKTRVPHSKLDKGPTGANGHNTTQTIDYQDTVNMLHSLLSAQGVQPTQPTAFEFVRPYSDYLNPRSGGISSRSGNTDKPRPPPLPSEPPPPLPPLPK

What does the source list for `C[C@H](O)C(=O)N[C@@H]1CCC[C@H](C(=O)Nc2cc(-c3cnn4c3CC(C)(C)C4)c(Cl)cn2)C1` [Example 20, (1S,3R)—N-(5-chloro-4-(5,5-dimethyl-5,6-dihydro-4H-pyrrolo[1,2-b]pyrazol-3-yl)pyridin-2-yl)-3-((S)-2-hydroxypropanamido)cyclohexanecarboxamide]?
IC50 (CDK9/CycT1 [1]): < 3 nM; IC50 (CDK9/CycT1 [2]): < 3 nM; IC50 [3]: 10 nM; IC50 (MV411 cells): 14 nM

Which IC50 (CDK9/CycT1 [1]) does the source give for `CC1(C)Cc2c(-c3cc(NC(=O)[C@H]4CCC[C@@H](NC(=O)C5(O)CC5)C4)ncc3Cl)cnn2C1` [Example 21, (1S,3R)—N-(5-chloro-4-(5,5-dimethyl-5,6-dihydro-4H-pyrrolo[1,2-b]pyrazol-3-yl)pyridin-2-yl)-3-(1-hydroxycyclopropanecarboxamido)cyclohexanecarboxamide] here?
Its IC50 is under 3 nM.

And the IC50 (CDK9/CycT1 [2])?
Its IC50 is under 3 nM.

And the IC50 [3]?
Its IC50 is under 7 nM.

What about the IC50 (MV411 cells) of the same compound?
Its IC50 is 13 nM.

`CC1(C)Cc2c(-c3cc(NC(=O)[C@H]4CCC[C@@H](NC(=O)[C@@H]5CCOC5)C4)ncc3Cl)cnn2C1` [Example 23, (R)—N-((1R,3S)-3-((5-chloro-4-(5,5-dimethyl-5,6-dihydro-4H-pyrrolo[1,2-b]pyrazol-3-yl)pyridin-2-yl)carbamoyl)cyclohexyl)tetrahydrofuran-3-carboxamide] was tested. Which IC50 (CDK9/CycT1 [1]) did it give?
Its IC50 is under 3 nM.

What about the IC50 (CDK9/CycT1 [2]) of the same compound?
Its IC50 is under 3 nM.

And the IC50 [3]?
Its IC50 is 6 nM.

And the IC50 (MV411 cells)?
The IC50 was 12 nM.

What does the source list for `CC1(C)Cc2c(-c3cc(NC(=O)[C@H]4CCC[C@@H](NC(=O)[C@H]5CCOC5)C4)ncc3Cl)cnn2C1` [Example 24, (S)—N-((1R,3S)-3-((5-chloro-4-(5,5-dimethyl-5,6-dihydro-4H-pyrrolo[1,2-b]pyrazol-3-yl)pyridin-2-yl)carbamoyl)cyclohexyl)tetrahydrofuran-3-carboxamide]?
IC50 (CDK9/CycT1 [1]): < 3 nM; IC50 (CDK9/CycT1 [2]): 4 nM; IC50 [3]: 11 nM; IC50 (MV411 cells): 15 nM

With `CC(=O)N[C@@H]1CCC[C@H](C(=O)Nc2cc(-c3cnn4c3CC(C)(C)C4)c(F)cn2)C1` [Example 25, (1S,3R)-3-acetamido-N-(4-(5,5-dimethyl-5,6-dihydro-4H-pyrrolo[1,2-b]pyrazol-3-yl)-5-fluoropyridin-2-yl)cyclohexanecarboxamide] as the compound, how does the IC50 (CDK9/CycT1 [1]) read?
The IC50 was under 3 nM.

What about the IC50 (CDK9/CycT1 [2]) of the same compound?
Its IC50 is 4 nM.

And the IC50 [3]?
The IC50 was 25 nM.

What about the IC50 (MV411 cells) of the same compound?
The IC50 was 29 nM.

Which results are given for `CC1(C)Cc2c(-c3ccnc(NC(=O)[C@H]4C[C@@H](O)C4)c3)cnn2C1` [Example 26, cis-N-(4-(5,5-dimethyl-5,6-dihydro-4H-pyrrolo[1,2-b]pyrazol-3-yl)pyridin-2-yl)-3-hydroxycyclobutanecarboxamide]?
IC50 (CDK9/CycT1 [1]): < 3 nM; IC50 (CDK9/CycT1 [2]): 93 nM; IC50 [3]: 122 nM; IC50 (MV411 cells): 152 nM

How did the IC50 (CDK9/CycT1 [1]) turn out when `CC1(C)Cc2c(-c3cc(NC(=O)[C@H]4C[C@@H](O)C4)ncc3Cl)cnn2C1` [Example 27, cis-N-(5-chloro-4-(5,5-dimethyl-5,6-dihydro-4H-pyrrolo[1,2-b]pyrazol-3-yl)pyridin-2-yl)-3-hydroxycyclobutanecarboxamide] was run?
The IC50 was under 3 nM.

What about the IC50 (CDK9/CycT1 [2]) of the same compound?
Its IC50 is 25 nM.

What about the IC50 [3] of the same compound?
Its IC50 is 44 nM.

And the IC50 (MV411 cells)?
Its IC50 is 38 nM.

Which IC50 (CDK9/CycT1 [1]) does the source give for `CC(=O)N[C@@H]1CCC[C@H](C(=O)Nc2cc(-c3cnn4c3CCCC4)ncn2)C1` [Example 28, (1S,3R)-3-acetamido-N-(6-(4,5,6,7-tetrahydropyrazolo[1,5-a]pyridin-3-yl)pyrimidin-4-yl)cyclohexanecarboxamide] here?
The IC50 was 36 nM.

And the IC50 (CDK9/CycT1 [2])?
Its IC50 is 4710 nM.

And the IC50 [3]?
Its IC50 is over 3000 nM.

And the IC50 (MV411 cells)?
Its IC50 is 6600 nM.

With `O=C(Nc1cc(-c2cnn3c2CCCC3)ncn1)[C@H]1C[C@H](O)C1` [Example 29, trans-3-hydroxy-N-(6-(4,5,6,7-tetrahydropyrazolo[1,5-a]pyridin-3-yl)pyrimidin-4-yl)cyclobutanecarboxamide] as the compound, how does the IC50 (CDK9/CycT1 [1]) read?
The IC50 was 63 nM.

What about the IC50 (CDK9/CycT1 [2]) of the same compound?
Its IC50 is 7540 nM.

And the IC50 [3]?
Its IC50 is over 2630 nM.

And the IC50 (MV411 cells)?
Its IC50 is 7220 nM.

With `CC(=O)N[C@@H]1CCC[C@H](C(=O)Nc2cc(-c3cnn4c3CC(C)(C)C4)ncn2)C1` [Example 30, (1S,3R)-3-acetamido-N-(6-(5,5-dimethyl-5,6-dihydro-4H-pyrrolo[1,2-b]pyrazol-3-yl)pyrimidin-4-yl)cyclohexanecarboxamide] as the compound, how does the IC50 (CDK9/CycT1 [1]) read?
Its IC50 is 7 nM.

And the IC50 (CDK9/CycT1 [2])?
The IC50 was 606 nM.

What about the IC50 [3] of the same compound?
Its IC50 is 1240 nM.

What about the IC50 (MV411 cells) of the same compound?
The IC50 was 1050 nM.

What does the source list for `N#CCC(=O)N[C@@H]1CCC[C@H](C(=O)Nc2cc(-c3cnn4c3CCCC4)c(Cl)cn2)C1` [Example 31, (1S,3R)—N-(5-chloro-4-(4,5,6,7-tetrahydropyrazolo[1,5-a]pyridin-3-yl)pyridin-2-yl)-3-(2-cyanoacetamido)cyclohexanecarboxamide]?
IC50 (CDK9/CycT1 [1]): < 3 nM; IC50 (CDK9/CycT1 [2]): 12 nM; IC50 [3]: 36 nM; IC50 (MV411 cells): 90 nM

With `CC(C)(C)OC(=O)N[C@@H]1CCC[C@H](C(=O)Nc2cc(-c3cnn4c3CCCC4)c(Cl)cn2)C1` [Example 31a, tert-butyl ((1R,3S)-3-((5-chloro-4-(4,5,6,7-tetrahydropyrazolo[1,5-a]pyridin-3-yl)pyridin-2-yl)carbamoyl)cyclohexyl)carbamate] as the compound, how does the IC50 (CDK9/CycT1 [1]) read?
Its IC50 is under 3 nM.

What about the IC50 (CDK9/CycT1 [2]) of the same compound?
Its IC50 is 16 nM.

What about the IC50 [3] of the same compound?
Its IC50 is 170 nM.

What about the IC50 (MV411 cells) of the same compound?
Its IC50 is 177 nM.

Which results are given for `O=C(Nc1cc(-c2cnn3c2CCCC3)c(Cl)cn1)[C@H]1CCC[C@@H](NC(=O)C2(O)CC2)C1` [Example 32, (1S,3R)—N-(5-chloro-4-(4,5,6,7-tetrahydropyrazolo[1,5-a]pyridin-3-yl)pyridin-2-yl)-3-(1-hydroxycyclopropanecarboxamido)cyclohexanecarboxamide]?
IC50 (CDK9/CycT1 [1]): < 3 nM; IC50 (CDK9/CycT1 [2]): 17 nM; IC50 [3]: 55 nM; IC50 (MV411 cells): 136 nM

What does the source list for `O=C(Nc1cc(-c2cnn3c2CCCC3)c(Cl)cn1)[C@H]1CCC[C@@H](NC(=O)[C@@H]2CCOC2)C1` [Example 33, (R)—N-((1R,3S)-3-((5-chloro-4-(4,5,6,7-tetrahydropyrazolo[1,5-a]pyridin-3-yl)pyridin-2-yl)carbamoyl)cyclohexyl)tetrahydrofuran-3-carboxamide]?
IC50 (CDK9/CycT1 [1]): < 3 nM; IC50 (CDK9/CycT1 [2]): 19 nM; IC50 [3]: 57 nM; IC50 (MV411 cells): 171 nM

With `CC1(C(=O)N[C@@H]2CCC[C@H](C(=O)Nc3cc(-c4cnn5c4CCCC5)c(Cl)cn3)C2)COC1` [Example 34, N-((1R,3S)-3-((5-chloro-4-(4,5,6,7-tetrahydropyrazolo[1,5-a]pyridin-3-yl)pyridin-2-yl)carbamoyl)cyclohexyl)-3-methyloxetane-3-carboxamide] as the compound, how does the IC50 (CDK9/CycT1 [1]) read?
Its IC50 is under 3 nM.

What about the IC50 (CDK9/CycT1 [2]) of the same compound?
Its IC50 is 29 nM.

And the IC50 [3]?
Its IC50 is 107 nM.

What about the IC50 (MV411 cells) of the same compound?
Its IC50 is 188 nM.

For `O=C(Nc1cc(-c2cnn3c2CCCC3)c(Cl)cn1)[C@H]1CCC[C@@H](NC(=O)[C@@H]2CCCO2)C1` [Example 35, (S)—N-((1R,3S)-3-((5-chloro-4-(4,5,6,7-tetrahydropyrazolo[1,5-a]pyridin-3-yl)pyridin-2-yl)carbamoyl)cyclohexyl)tetrahydrofuran-2-carboxamide], which IC50 (CDK9/CycT1 [1]) is on record?
The IC50 was under 3 nM.

And the IC50 (CDK9/CycT1 [2])?
The IC50 was 23 nM.

And the IC50 [3]?
The IC50 was 40 nM.

What about the IC50 (MV411 cells) of the same compound?
Its IC50 is 125 nM.
